The values below come from publication PMC7859723 (International Journal of Biological Macromolecules, 2021).

The test system of data set [1] is 3CLpro. The conditions noted are these: read-out: IC50, inhibition of 3CLpro activity; cited from earlier work.
Data set [2] deals with 3CLpro. The conditions noted are these: cited from earlier work.
The target of data set [3] is T1, SARS-CoV-2 3CLpro (Severe acute respiratory syndrome coronavirus 2, UniProt P0DTD1). The experiment in a line: Thermal shift assay. The class given is binding. The conditions noted are these: compared with DMSO control.
The conditions of data set [4]: retrieved from database; ref TCMSP database; cited from earlier work.
Data set [5] is described as follows: Water solubility. The data set is classed as physicochemical.
For data set [6], the target named is T1, SARS-CoV-2 3CLpro. The experiment in a line: FRET protease assay, 3CLpro enzyme activity inhibition. The class given is biochemical.
For data set [7], the target named is T1, SARS-CoV-2 3CLpro. Nature of the data set: SPR binding assay on immobilized 3CLpro. (In general: Surface plasmon resonance follows binding to a sensor surface in real time, without labels.)

Consider `O=c1c2ccccc2[se]n1-c1ccccc1` [Ebselen], for which the IC50 (commonly the concentration that gives 50% inhibition) in data set [1] is 0.67 ± 0.09 µM. The EC50 (usually the midpoint of the concentration-response curve) in data set [2] was 4.67 ± 0.8 µM.

On to `O=C(O[C@@H]1Cc2c(O)cc(O)cc2O[C@@H]1c1cc(O)c(O)c(O)c1)c1cc(O)c(O)c(O)c1` [Epigallocatechin-3-gallate, epigallocatechin-3-gallate], for which the “effect on thermal stability of 3CLpro” value in data set [3] is “altered the thermal stability of SARS-CoV-2 3CLpro in a dose-dependent manner”. Besides, the “OB (oral bioavailability)” value in data set [4] is listed as 55.09%.

In the case of `COc1cc(-c2oc3cc(O)cc(O)c3c(=O)c2O)ccc1O` [Isorhamnetin, isorhamnetin], the water solubility entry in data set [5] is reported as “low water solubility”.

In the case of `O=c1c(O)c(-c2ccc(O)cc2)oc2cc(O)cc(O)c12` [Kaempferol, kaempferol], the IC50 in data set [6] was greater than 100 µM. Binding in data set [7] was put at a Kd of 1.7 µM.

In data set [6], `O=c1cc(-c2ccc(O)c(O)c2)oc2cc(O)cc(O)c12` [Luteolin, luteolin] showed an IC50 of 89.7 µM. Besides, the affinity in data set [7], expressed as Kd, was 1.63 µM.

Turning to `O=C1C[C@@H](c2ccc(O)cc2)Oc2cc(O)cc(O)c21` [Naringenin, naringenin], in data set [6], the IC50 was greater than 100 µM. Besides, binding in data set [7] was characterised by a dissociation constant (Kd) of 2.87 µM.
